Measured values reported in patent US8440710B2, “HSL inhibitors useful in the treatment of diabetes” (Hoffmann-La Roche Inc., priority 2009, dated 2013).

What follows are compounds tested against T1, human HSL (Homo sapiens, UniProt Q05469) (assay: Human Hormone-Sensitive Lipase (HSL) enzyme inhibition assay (colorimetric, DMPT substrate)). Settings: human full length HSL-His6, 2,3-dimercapto-1-propanol tributyrate substrate, 37° C. 20 minutes, absorbance at 405 nm; read-out: HSL hum IC50.
T1 construct: generate a full length human HSL ORF with a 3′-His6 tag; made in house; host or cells: High 5 insect cells (baculovirus, pFast-BAC)
T1 sequence (Q05469 1-1076): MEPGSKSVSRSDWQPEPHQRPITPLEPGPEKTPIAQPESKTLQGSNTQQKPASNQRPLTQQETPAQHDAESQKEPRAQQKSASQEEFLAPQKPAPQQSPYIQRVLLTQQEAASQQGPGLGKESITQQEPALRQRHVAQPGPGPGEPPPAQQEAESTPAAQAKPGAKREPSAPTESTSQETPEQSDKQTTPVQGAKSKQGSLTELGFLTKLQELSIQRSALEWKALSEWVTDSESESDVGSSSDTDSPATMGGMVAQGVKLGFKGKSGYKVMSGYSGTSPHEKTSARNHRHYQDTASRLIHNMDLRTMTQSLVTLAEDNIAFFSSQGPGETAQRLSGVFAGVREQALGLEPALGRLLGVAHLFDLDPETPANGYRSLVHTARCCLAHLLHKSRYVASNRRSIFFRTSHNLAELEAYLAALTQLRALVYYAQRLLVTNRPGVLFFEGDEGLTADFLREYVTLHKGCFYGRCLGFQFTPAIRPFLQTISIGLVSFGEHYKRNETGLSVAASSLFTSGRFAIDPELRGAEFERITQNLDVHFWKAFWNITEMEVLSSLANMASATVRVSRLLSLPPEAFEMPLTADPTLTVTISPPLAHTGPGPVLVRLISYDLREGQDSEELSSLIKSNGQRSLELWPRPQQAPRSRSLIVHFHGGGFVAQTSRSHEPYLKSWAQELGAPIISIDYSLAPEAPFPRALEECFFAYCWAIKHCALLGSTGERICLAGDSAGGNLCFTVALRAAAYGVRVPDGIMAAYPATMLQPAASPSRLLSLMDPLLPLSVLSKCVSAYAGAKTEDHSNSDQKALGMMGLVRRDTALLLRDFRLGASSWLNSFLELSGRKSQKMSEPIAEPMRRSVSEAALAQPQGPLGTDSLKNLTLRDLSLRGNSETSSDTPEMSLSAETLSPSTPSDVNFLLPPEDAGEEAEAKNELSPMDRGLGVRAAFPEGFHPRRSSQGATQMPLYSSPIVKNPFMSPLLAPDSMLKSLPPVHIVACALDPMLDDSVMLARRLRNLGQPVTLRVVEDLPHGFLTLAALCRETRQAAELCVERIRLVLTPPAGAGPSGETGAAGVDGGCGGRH
Format: biochemical
Procedure, shortened: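 Full-length human HSL with C-terminal His6, expressed in baculovirus-infected High 5 cells and Ni-NTA purified, was added (15 ug/ml stock) to 1.5 mM DMPT in 100 mM MOPS pH 7.2, 0.2 mg/ml fatty acid-free BSA containing compound. After 20 min at 37 °C, DTNB with SDS/Triton X-100 was added; A405 read after 15 min at RT.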

Compound	IC50 [µM]
CC(C)[C@]1(O)CC[C@@]2(CCN(c3ccc(OCC(F)(F)F)nc3)C2=O)CC1 [Example 109, (5α,8β)-8-Hydroxy-8-isopropyl-2-(6-(2,2,2-trifluoroethoxy)pyridin-3-yl)-2-aza-spiro[4.5]decan-1-one]	2.22
COC[C@]1(O)CC[C@]2(CCN(c3ccc(OCC(F)(F)F)nc3)C2=O)CC1 [Example 110, (5α,8α)-8-Hydroxy-8-(methoxymethyl)-2-(6-(2,2,2-trifluoroethoxy)pyridin-3-yl)-2-aza-spiro[4.5]decan-1-one]	0.19
CC#C[C@]1(O)CC[C@]2(CCN(c3ccc(OCC(F)(F)F)cc3)C2=O)CC1 [Example 111, (5α,8α)-8-Hydroxy-8-prop-1-ynyl-2-[4-(2,2,2-trifluoro-ethoxy)phenyl]-2-aza-spiro[4.5]decan-1-one]	0.1
O=C1N(c2ccc(OC(F)(F)F)cc2)CC[C@]12CC[C@@](O)(C(F)(F)F)CC2 [Example 112, (5α,8α)-8-Hydroxy-2-(4-trifluoromethoxy-phenyl)-8-trifluoromethyl-2-aza-spiro[4.5]decan-1-one]	0.02
O=C1N(c2ccc(OC(F)(F)F)cc2)CC[C@]12CC[C@](O)(C(F)(F)F)CC2 [Example 113, (5α,8β)-8-Hydroxy-2-(4-trifluoromethoxy-phenyl)-8-trifluoromethyl-2-aza-spiro[4.5]decan-1-one]	2.18
COC[C@]1(O)CC[C@]2(CCN(c3ccc(OC(F)(F)F)cc3)C2=O)CC1 [Example 114, (5α,8α)-8-Hydroxy-8-methoxymethyl-2-(4-trifluoromethoxy-phenyl)-2-aza-spiro[4.5]decan-1-one]	0.03
COC[C@]1(O)CC[C@@]2(CCN(c3ccc(OC(F)(F)F)cc3)C2=O)CC1 [Example 115, (5α,8β)-8-Hydroxy-8-methoxymethyl-2-(4-trifluoromethoxy-phenyl)-2-aza-spiro[4.5]decan-1-one]	0.68
CCOC(=O)C[C@]1(O)CC[C@]2(CCN(c3ccc(OC(F)(F)F)cc3)C2=O)CC1 [Example 116, [(5α,8α)-8-Hydroxy-1-oxo-2-(4-trifluoromethoxy-phenyl)-2-aza-spiro[4.5]dec-8-yl]-acetic acid ethyl ester]	0.01
CCOC[C@]1(O)CC[C@]2(CCN(c3ccc(OC(F)(F)F)cc3)C2=O)CC1 [Example 117, (5α,8α)-8-Ethoxymethyl-8-hydroxy-2-(4-trifluoromethoxy-phenyl)-2-aza-spiro[4.5]decan-1-one]	0.02
O=C1N(c2ccc(OC(F)(F)F)cc2)CC[C@]12CC[C@@](O)(CCO)CC2 [Example 118, (5α,8α)-8-Hydroxy-8-(2-hydroxy-ethyl)-2-(4-trifluoromethoxy-phenyl)-2-aza-spiro[4.5]decan-1-one]	0.1
COCC[C@]1(O)CC[C@]2(CCN(c3ccc(OC(F)(F)F)cc3)C2=O)CC1 [Example 119, (5α,8α)-8-Hydroxy-8-(2-methoxy-ethyl)-2-(4-trifluoromethoxy-phenyl)-2-aza-spiro[4.5]decan-1-one]	0.03
COCC[C@]1(OC)CC[C@]2(CCN(c3ccc(OC(F)(F)F)cc3)C2=O)CC1 [Example 120, (5α,8α)-8-Methoxy-8-(2-methoxy-ethyl)-2-(4-trifluoromethoxy-phenyl)-2-aza-spiro[4.5]decan-1-one]	0.1
COC[C@]1(O)CC[C@]2(CCN(c3ccc(C(F)(F)F)cc3)C2=O)CC1 [Example 121, (5α,8α)-8-Hydroxy-8-methoxymethyl-2-(4-trifluoromethyl-phenyl)-2-aza-spiro[4.5]decan-1-one]	0.1
COCCCc1ccc(N2CC[C@]3(CC[C@@](O)(C(C)C)CC3)C2=O)cc1 [Example 130, (5α,8α)-8-Hydroxy-8-isopropyl-2-(4-(3-methoxypropyl)phenyl)-2-aza-spiro[4.5]decan-1-one]	0.05
CC[C@]1(O)CC[C@]2(CCN(c3ccc(C(C)(C)COC)cc3)C2=O)CC1 [Example 131, (5α,8α)-8-Ethyl-8-hydroxy-2-[4-(2-methoxy-1,1-dimethyl-ethyl)-phenyl]-2-aza-spiro[4.5]decan-1-one]	0.09
CCC[C@]1(O)CC[C@]2(CCN(c3ccc([C@H](O)C(F)(F)F)cc3)C2=O)CC1 [Example 133a, (5α,8α)-8-Hydroxy-8-propyl-2-[4-((S)-2,2,2-trifluoro-1-hydroxy-ethyl)-phenyl]-2-aza-spiro[4.5]decan-1-one]	0.05
CCC[C@]1(O)CC[C@]2(CCN(c3ccc([C@@H](O)C(F)(F)F)cc3)C2=O)CC1 [Example 133b, (5α,8α)-8-Hydroxy-8-propyl-2-[4-((R)-2,2,2-trifluoro-1-hydroxy-ethyl)-phenyl]-2-aza-spiro[4.5]decan-1-one]	0.03
CCC[C@]1(O)CC[C@@]2(CCN(c3ccc(C(O)C(F)(F)F)cc3)C2=O)CC1 (stereo partly drawn) [Example 134, (5α,8β)-8-Hydroxy-8-propyl-2-(4-(2,2,2-trifluoro-1-hydroxyethyl)phenyl)-2-aza-spiro[4.5]decan-1-one]	1.18

Next, values leading:

IC50 [µM]	Compound
0.05	CCC[C@]1(O)CC[C@]2(CCN(c3ccc(CCOC)cc3)C2=O)CC1 [Example 122, (5α,8α)-8-Hydroxy-2-[4-(2-methoxy-ethyl)-phenyl]-8-propyl-2-aza-spiro[4.5]decan-1-one]
0.42	COCCc1ccc(N2CC[C@]3(CC[C@@](O)(C(F)(F)F)CC3)C2=O)cc1 [Example 123, (5α,8α)-8-Hydroxy-2-[4-(2-methoxy-ethyl)-phenyl]-8-trifluoromethyl-2-aza-spiro[4.5]decan-1-one]
0.02	COCCc1ccc(N2CC[C@]3(CC[C@@](O)(CC(C)C)CC3)C2=O)cc1 [Example 124, (5α,8α)-8-Hydroxy-8-isobutyl-2-[4-(2-methoxy-ethyl)-phenyl]-2-aza-spiro[4.5]decan-1-one]
1.81	COCCc1ccc(N2CC[C@]3(CC[C@](O)(CC(C)C)CC3)C2=O)cc1 [Example 125, (5α,8β)-8-Hydroxy-8-isobutyl-2-[4-(2-methoxy-ethyl)-phenyl]-2-aza-spiro[4.5]decan-1-one]
0.01	COCCc1ccc(N2CC[C@]3(CC[C@@](O)(CC(C)(C)C)CC3)C2=O)cc1 [Example 126, (5α,8α)-8-(2,2-Dimethyl-propyl)-8-hydroxy-2-[4-(2-methoxy-ethyl)-phenyl]-2-aza-spiro[4.5]decan-1-one]
0.12	C=C(C)[C@]1(O)CC[C@]2(CCN(c3ccc(CCOC)cc3)C2=O)CC1 [Example 127, (5α,8α)-8-Hydroxy-8-isopropenyl-2-[4-(2-methoxy-ethyl)-phenyl]-2-aza-spiro[4.5]decan-1-one]
0.05	COCCc1ccc(N2CC[C@]3(CC[C@@](O)(C(C)C)CC3)C2=O)cc1 [Example 128, (5α,8α)-8-Hydroxy-8-isopropyl-2-[4-(2-methoxy-ethyl)-phenyl]-2-aza-spiro[4.5]decan-1-one]
0.02	CCCC[C@]1(O)CC[C@]2(CCN(c3ccc(CCOC)cc3)C2=O)CC1 [Example 129, (5α,8α)-8-Butyl-8-hydroxy-2-[4-(2-methoxy-ethyl)-phenyl]-2-aza-spiro[4.5]decan-1-one]
0.02	CCC[C@]1(O)CC[C@]2(CCN(c3ccc(C(C)(C)COC)cc3)C2=O)CC1 [Example 132, (5α,8α)-8-Hydroxy-2-[4-(2-methoxy-1,1-dimethyl-ethyl)-phenyl]-8-propyl-2-aza-spiro[4.5]decan-1-one]
